# According to paper PMC12333940, “A prometabolite strategy inhibits cardiometabolic disease in an ApoE^–/– murine model of atherosclerosis” (JCI Insight, 2025):
# “And” between values parts separate entries of the source, which are not always exact repeats. Equal entries are not always repeated.
# Columns and labels:
# RAW 264.7 macrophages [1] = assay: Flow cytometry of iNOS, CD80, CD86 in LPS-stimulated RAW 264.7; type: cell-based
# Procedure: RAW 264.7 (ATCC, TIB-71) macrophages were cultured at 37°C and 5% CO2 in DMEM (Gibco) supplemented with 1 mM HEPES, 1 mM sodium pyruvate, 10% FBS, and penicillin/streptomycin. Cells were plated in round-bottom 96-well plates at 100,000 cells per well and incubated with different concentrations of either NaBut or SerBut (0.15–12 mM) for 24 hours. […] The cell culture supernatant was collected and analyzed by LEGENDPlex to analyze the concentrations of cytokines (BioLegend). Cell phenotype was analyzed using flow cytometry (Cytek Aurora).
# Flow cytometry was performed using a BD LSRFortessa or a Cytek Aurora full-spectrum cytometer. Data were analyzed using FlowJo version 10.8.0. eFluor 780 Viability Dye (Invitrogen, 65-0865-14) and antibodies against the following markers were used in the RAW 264.7 macrophage in vitro studies: CD86 (BV421; BD Horizon, catalog 564198), CD80 (BC650; BioLegend, clone 16-10A1, catalog 104732), and iNOS (APC; Invitrogen, clone CXNFT, catalog 17-5920-9). Live/Dead Blue (Invitrogen, 123105A) and antibodies against the following markers were used in the atherosclerosis mouse models: F4/80 (FITC; BioLegend, clone BM8, catalog 123108), CD3e (BV605; BD Biosciences, clone 145-2C11, catalog 563565), CD4 (BUV496; BD Biosciences, clone GK 1.5, catalog 612952), RORγt (AF647; BD Biosciences, clone Q31-378, catalog 562682), FoxP3 (AF488, BD Biosciences, clone MF23, catalog 560403), CCR2 (PE; R&D Systems, catalog FAB5538P), Ly6C (APC-Cy7; BioLegend, catalog 128026, clone HK1.4), Ly6G (AF488; BioLegend, catalog 127626), CD8 (APC-Cy7; BioLegend, clone 53-6.7, catalog 100714), CD45 (BUV805; Invitrogen, clone 30-F11, catalog 368-0451-82), and CD25 (PerCP-Cy5.5; BioLegend, clone PC61, catalog 102030).
# NF-κB = assay: NF-κB-SEAP reporter assay in RAW-Blue cells after LPS; type: cell-based; conditions: for NFkB OD: then 200 ng/mL LPS 6 h
# Procedure: NF-κB inhibition was assayed using the NF-κB-SEAP reporter cell line, RAW-Blue (InvivoGen, raw-sp). Cells were plated in round-bottom 96-well plates at 100,000 cells per well and cocultured with different concentrations of either NaBut or SerBut (0.15–12 mM) for 24 hours. After the addition of butyrate, cells were rinsed with phosphate buffered saline (PBS) and then stimulated with 200 ng/mL LPS in media for 6 hours.
# RAW 264.7 macrophages [2] = assay: Cell viability assay (MTS); type: cell-based; conditions: for Viability: 24 hours
# Procedure: CellTiter 96 AQueous one Solution Cell Proliferation Assay (MTS) (Promega, G3582) was used according to the manufacturer’s instructions to analyze cytotoxicity of SerBut and NaBut at various concentrations (0.15–12 mM) in RAW 264.7 macrophages. Viability values were normalized to untreated cells (100%) and Triton X-100–treated cells (0%). Since absorbance is directly proportional to the number of living cells in culture, values greater than 100% indicate cell growth compared with controls.
# LDL-R = assay: Western blot of LDL-R in liver; type: in vivo, mouse; conditions: for LDL-R protein levels in liver: 6 weeks; for LDL-R Relative Expression: western Blot quantifiation, individual mice
# Excerpt: (§1) SerBut water was pH adjusted using 10 M NaOH to a final pH of 7.4. […] After 6 weeks, mice were euthanized. […] The liver was harvested and part was homogenized in tissue protein extraction reagent buffer (Invitrogen, 78510) supplemented with protease inhibitor mini tablets (Thermo Fisher Scientific, PIA32955) for Western blotting and qPCR.
# [3] = system: bone marrow–derived dendritic cells (BMDCs); design: method as in PMID 38561491, PMID 27897220; conditions: BMDCs ref 28, 40; cited from earlier work
# [4] = Body weight during treatment; type: in vivo, ApoE^–/– mice; conditions: in g (unit assumed)
# Excerpt: as §1
# HDAC = system: HDAC; design: method as in PMID 38561491; conditions: RAW 264.7 ref 28; cited from earlier work
# [5] = 0.45 mM, 12 Hour LPS stim after Butyrate treament, listed as NB
# [6] = 0.45 mM, 12 hour LPS stim before butyrate treatment, listed as NB
# [7] = 1.3 mM, 12 Hour LPS stim after Butyrate treament, listed as NB
# [8] = 1.3 mM, 12 hour LPS stim before butyrate treatment, listed as NB
# [9] = 4 mM, 12 Hour LPS stim after Butyrate treament, listed as SB
# [10] = 4 mM, 12 hour LPS stim before butyrate treatment, listed as SB
# [11] = 12 mM, 12 Hour LPS stim after Butyrate treament, listed as SB
# [12] = 12 mM, 12 hour LPS stim before butyrate treatment, listed as SB
structure (smiles),measurement,setting,value
"CCCC(=O)[O-].[Na+] [NaBut, sodium butyrate, reference compound]",CD80 MFI,"RAW 264.7 macrophages [1]; 0.15 mM 24 h, then LPS 6 h",22618 and 22070 and 22276
same,iNOS MFI,"RAW 264.7 macrophages [1]; 0.15 mM 24 h, then LPS 6 h",132178 and 120454 and 127565
same,CD80 MFI,"RAW 264.7 macrophages [1]; 0.45 mM 24 h, then LPS 6 h",22987 and 22543 and 22840
same,iNOS MFI,"RAW 264.7 macrophages [1]; 0.45 mM 24 h, then LPS 6 h",139940 and 135604 and 131383
same,CD80+ % Live,RAW 264.7 macrophages [1]; [5],31.4% and 45.9% and 36.7%
same,CD86+ % Live,RAW 264.7 macrophages [1]; [5],10.9% and 12.8% and 11.6%
same,iNOS+ %Live,RAW 264.7 macrophages [1]; [5],72.8% and 94.5% and 85.8%
same,CD80+ % Live,RAW 264.7 macrophages [1]; [6],55.4% and 59.7% and 52.7%
same,CD86+ % Live,RAW 264.7 macrophages [1]; [6],16.4% and 16% and 15.5%
same,iNOS+ %Live,RAW 264.7 macrophages [1]; [6],39.7% and 50% and 39.3%
same,CD80 MFI,"RAW 264.7 macrophages [1]; 1.3 mM 24 h, then LPS 6 h",22932 and 22915 and 22360
same,iNOS MFI,"RAW 264.7 macrophages [1]; 1.3 mM 24 h, then LPS 6 h",123416 and 155157 and 124806
same,CD80+ % Live,RAW 264.7 macrophages [1]; [7],40.8% and 54.3% and 32.8%
same,CD86+ % Live,RAW 264.7 macrophages [1]; [7],22.7% and 26% and 18.7%
same,iNOS+ %Live,RAW 264.7 macrophages [1]; [7],66.2% and 87.1% and 52%
same,CD80+ % Live,RAW 264.7 macrophages [1]; [8],47.8% and 46.8% and 51.4%
same,CD86+ % Live,RAW 264.7 macrophages [1]; [8],16.7% and 17.4% and 18.3%
same,iNOS+ %Live,RAW 264.7 macrophages [1]; [8],31.6% and 29.4% and 31.8%
same,NFkB OD,NF-κB; 0.45 mM 24 h,0.161 and 0.132 and 0.164 and 0.174 and 0.222 and 0.147
same,NFkB OD,NF-κB; 1.3 mM 24 h,0.118 and 0.109 and 0.114 and 0.106 and 0.112 and 0.117
same,NFkB OD,NF-κB; 4 mM 24 h,0.077 and 0.086 and 0.085 and 0.074 and 0.081
same,cell viability,RAW 264.7 macrophages [2]; at 4 mM and above,significantly reduced cell viability
same,LDL-R protein levels in liver,LDL-R,significantly suppressed
same,LDL-R Relative Expression,LDL-R,0.9947 and 1.813 and 1.671 and 2.327 and 1.487 and 1.248 and 0.7546 and 0.5275 and 1.539 and 2.451
"CCCC(=O)OC[C@H](N)C(=O)O [SerBut, O-butyryl-L-serine]",inflammatory marker expression,[3],suppressed inflammatory marker expression
same,CD80 MFI,"RAW 264.7 macrophages [1]; 1.3 mM 24 h, then LPS 6 h",22757 and 22379 and 22182 and 22697 and 22413
same,iNOS MFI,"RAW 264.7 macrophages [1]; 1.3 mM 24 h, then LPS 6 h",133476 and 131849 and 120651 and 126894 and 131328
same,CD80 MFI,"RAW 264.7 macrophages [1]; 4 mM 24 h, then LPS 6 h",22258 and 21750 and 21713 and 21977 and 22364 and 21487
same,iNOS MFI,"RAW 264.7 macrophages [1]; 4 mM 24 h, then LPS 6 h",123258 and 124792 and 115548 and 125159 and 131532 and 119298
same,CD80+ % Live,RAW 264.7 macrophages [1]; [9],20.6% and 26% and 25.2%
same,CD86+ % Live,RAW 264.7 macrophages [1]; [9],6.07% and 6.44% and 6.25%
same,iNOS+ %Live,RAW 264.7 macrophages [1]; [9],57.8% and 66.6% and 65.8%
same,CD80+ % Live,RAW 264.7 macrophages [1]; [10],45.8% and 43.1% and 44.5%
same,CD86+ % Live,RAW 264.7 macrophages [1]; [10],14.9% and 14.1% and 14.2%
same,iNOS+ %Live,RAW 264.7 macrophages [1]; [10],40.8% and 45.6% and 40.9%
same,iNOS and CD80 expression after LPS stimulation,RAW 264.7 macrophages [1]; 12 mM,significantly reduced
same,CD80 MFI,"RAW 264.7 macrophages [1]; 12 mM 24 h, then 200 ng/mL LPS 6 h",20826 and 21079 and 20195 and 20493 and 21214 and 20412
same,iNOS MFI,"RAW 264.7 macrophages [1]; 12 mM 24 h, then LPS 6 h",95330 and 101513 and 93052 and 99228 and 94381 and 96644
same,CD80+ % Live,RAW 264.7 macrophages [1]; [11],13.7% and 18.3% and 22.8%
same,CD86+ % Live,RAW 264.7 macrophages [1]; [11],6.99% and 8.29% and 9.22%
same,iNOS+ %Live,RAW 264.7 macrophages [1]; [11],26.5% and 43.9% and 50.9%
same,CD80+ % Live,RAW 264.7 macrophages [1]; [12],43.1% and 48% and 48.3%
same,CD86+ % Live,RAW 264.7 macrophages [1]; [12],14.5% and 13.5% and 15.9%
same,iNOS+ %Live,RAW 264.7 macrophages [1]; [12],31.3% and 49.4% and 36.1%
same,iNOS-suppressing capacity during longer LPS stimulations,RAW 264.7 macrophages [1]; high doses,maintained
same,NFkB OD,NF-κB; 1.3 mM 24 h,0.215 and 0.212 and 0.201 and 0.244 and 0.265 and 0.185
same,NFkB OD,NF-κB; 4 mM 24 h,0.151 and 0.171 and 0.176 and 0.19 and 0.152
same,NFkB OD,NF-κB; 12 mM 24 h,0.101 and 0.118 and 0.1 and 0.099 and 0.117 and 0.087
same,LPS-induced NF-κB activation,"NF-κB; 12 mM, comparable to 1.3 mM NaBut",significantly suppressed LPS-induced NF-κB activation
same,Weight,"[4]; week 0, 150 mM in drinking water with HFD, individual mice",18.7 and 18.3 and 20 and 18.8 and 17 and 19.2 and 18.6 and 18.9 and 20.5 and 19.6
same,Weight,[4]; week 2,20.9 and 20.5 and 20.2 and 18.7 and 20 and 20.6 and 20.3 and 21.2
same,Weight,[4]; week 2.5,21.2 and 20.6 and 21.6 and 19.8 and 21.4 and 21.5 and 20.7 and 21.9
same,Weight,[4]; week 5,24 and 22.2 and 21.8 and 20.2 and 21.1 and 22.4 and 21.4 and 22.7
same,Weight,[4]; week 6,23.8 and 21.9 and 22.9 and 19.2 and 21.6 and 22.7 and 21.4 and 23.1
same,Viability,"RAW 264.7 macrophages [2]; 0.15 mM, normalized to untreated (100%) and Triton X-100 (0%)",125.153% and 106.544% and 100.92%
same,Viability,RAW 264.7 macrophages [2]; 0.44 mM,107.157% and 122.597% and 96.9325%
same,Viability,RAW 264.7 macrophages [2]; 1.33 mM,115.337% and 91.7178% and 91.1043%
same,Viability,RAW 264.7 macrophages [2]; 4 mM,117.28% and 100.204% and 101.431%
same,Viability,RAW 264.7 macrophages [2]; 12 mM,121.575% and 99.0798% and 102.249%
same,cytotoxicity,RAW 264.7 macrophages [2]; even at 12 mM,no cytotoxicity
same,HDAC inhibition activity,HDAC,maintained attenuated HDAC inhibition activity
same,LDL-R protein levels in liver,LDL-R,significantly suppressed
same,LDL-R Relative Expression,LDL-R,1.543 and 1.468 and 1.422 and 1.743 and 2.24 and 1.846 and 1.092 and 1.104 and 0.9748
